Measured values reported in patent US9175011B2, “Morpholino substituted urea or carbamate derivatives as MTOR inhibitors” (CELLZOME LIMITED, priority 2011, dated 2015).

How the values were obtained:
[1] = system: S6RP serine-240/244 phosphorylation; assay: In vitro phospho-S6 cellular assay (HEK293T/17); assay type: cell-based; settings: Homo sapiens; HEK293T/17 cells, 2 hours, pS6RP Ser240/244; read-out: Inhibition values (IC50) pS6
Source text: Activation of mTOR signaling results in phosphorylation of several downstream targets. In cells, mTOR exists in two different protein complexes. The mTOR Complex-1 (mTORC1) phosphorylates and activates S6 Kinase 1 (S6K1) and S6 Kinase 2 (S6K2) (also known as p70S6K) which then phosphorylate S6 Ribosomal Protein (S6RP) (also known as RPS6)3. S6RP is phosphorylated on serine 235, senile 236, serine 240 and serine 244 by both pS6K1 and pS6K2. The mTOR Complex-2 (mTORC2) phosphorylates AKT on serine 473 which activates the AKT signaling pathway.
The assay measures a test compound's inhibition of S6RP serine-240/244 phosphorylation and inhibition of Akt serine-473 phosphorylation in human embryonic kidney derived HEK293T/17 cells (ATCC CRL-11268).
The HEK293T/17 cell line is maintained in DMEM media (Invitrogen catalogue number 41965-039) supplemented with 10% FCS at 37° C. in a 5% CO2 humidified incubator. Cells are seeded in 96-well plates at 40,000 cells/well (pS6RP S240/244 assay) or 80,000 cells/well (pAkt 5473 assay) in 90 μl growth media (DMEM, 2% FCS). Plates are incubated for 1 hour in a humidified incubator to allow the cells to adhere. Cells are treated with 8 concentrations of test compounds or DMSO alone for controls (final DMSO concentration 0.1%) and incubated at 37° C. for 2 hours. Then 20 μl of 5× concentrated lysis buffer (750 mM NaCl, 100 mM Tris pH7.4, 5 mM ADTA, 5 mM EGTA, 5% Triton X-100) is added, plates are sealed and incubated for 15 minutes at 4° C. with gentle shaking After cell lysis, 25 μl cell lysate is transferred to a MesoScale plate coated with an antibody to pS6RP Ser240/244 (MesoScale Discovery K150DGD-3) or an antibody to pAkt Ser 473 (MesoScale Discovery K151DGD-3). Plates have been blocked before by incubation with 150 μl MesoScale Discovery Blocking Solution-A for 1 hour at room temperature followed by washing with 150 μl 1×Tris wash buffer per well. After the transfer of the cell lysate to the MSD plate, the pS6RP (or pAkt) protein is captured on the coated antibody by incubation at room temperature for 1 hour with gentle shaking. After the capture step the plate is washed three times with 150 μl of 1× Tris wash buffer per well. Then 25 μl detection antibody conjugated with a Sulfo-Tag is added and incubated for 1 hour at room temperature with gentle shaking. Subsequently the antibody solution is removed and the plate is washed 3 times with 150 μl 1×Tris wash buffer per well and 150 μl Read buffer is added. The plates are analysed on a MSD 2400 Plate Reader (MesoScale Discovery). Data analysis is performed using nonlinear regression for a sigmoidal dose-response with a variable slope.

[2] = biological target: T1, mTOR (Homo sapiens, UniProt P42345); assay: mTOR kinobeads assay (Jurkat cell lysate, dot blot detection); assay type: binding; settings: read-out: Inhibition values (IC50) mTor
T1 construct: Jurkat cells were homogenized in a Potter S homogenizer in lysis buffer; endogenous in cells; host or cells: Jurkat, clone E6-1 (ATCC TIB-152) lysate
Method: (§1) The compounds of the present invention as described were tested in the mTOR kinobeads assay as described below. Briefly, test compounds (at various concentrations) and the affinity matrix (1:1 mixture of beads with immobilized phenylthiazole ligand 1 and beads with immobilized phenylmorpholin-chromen ligand; WO 2009/098021) were added to cell lysate aliquots and allowed to bind to the proteins in the lysate sample. After the incubation time the beads with captured proteins were separated from the lysate. Bound proteins were then eluted and the presence of mTOR, PI3K alpha (PI3Kα), PI3K beta (PI3Kb), PI3K gamma (PI3Kg), PI3K delta (PI3Kd) and DNA-dependent protein kinase (DNA-PK) was detected and quantified using a specific antibody in a dot blot procedure and the Odyssey infrared detection system. Dose response curves for individual kinases were generated and IC50 values calculated. Kinobeads assays for PI3 kinases (WO-A 2008/015013) and for kinase selectivity profiling (WO 2009/098021) have been previously described.
(§2) The affinity matrix (beads with immobilized phenylmorpholin-chromen ligand) was washed three times with 15 ml of 1×DP buffer containing 0.2% NP40 (IGEPAL® CA-630, Sigma, #13021) and then resuspended in 5.5 ml of 1×DP buffer containing 0.2% NP40 (10% beads slurry).
(§3) 5×DP buffer: 250 mM Tris-HCl pH 7.4, 25% Glycerol, 7.5 mM MgCl2, 750 mM NaCl, 5 mM Na3VO4, filter the 5×-lysis buffer through 0.22 μm filter and store in aliquots at −80° C. The 5×DP buffer is diluted to 1×DP buffer containing 1 mM DTT and 25 mM NaF.
(§4) Stock solutions of test compounds were prepared in DMSO. In a 96 well plate 30 μl solution of diluted test compounds at 5 mM in DMSO were prepared. Starting with this solution a 1:3 dilution series (9 steps) was prepared. For control experiments (no test compound) a buffer containing 2% DMSO was used. Compound PI-103 served as a positive control (Calbiochem catalogue number 528100).
(§5) Jurkat cells (ATCC catalogue number TIB-152 Jurkat, clone E6-1) were grown in 1 liter Spinner flasks (Integra Biosciences, #182101) in suspension in RPMI 1640 medium (Invitrogen, #21875-034) supplemented with 10% Fetal Bovine Serum (Invitrogen) at a density between 0.15×10^6 and 1.2×10^6 cells/ml. Cells were harvested by centrifugation, washed once with 1×PBS buffer (Invitrogen, #14190-094) and cell pellets were frozen in liquid nitrogen and subsequently stored at −80° C.
(§6) Jurkat cells were homogenized in a Potter S homogenizer in lysis buffer: 50 mM Tris-HCl, 0.8% NP40, 5% glycerol, 150 mM NaCl, 1.5 mM MgCl2, 25 mM NaF, 1 mM sodium vanadate, 1 mM DTT, pH 7.5. One complete EDTA-free tablet (protease inhibitor cocktail, Roche Diagnostics, 1873580) per 25 ml buffer was added. The material was dounced 10 times using a mechanized POTTER S, transferred to 50 ml falcon tubes, incubated for 30 minutes on ice and spun down for 10 min at 20,000 g at 4° C. (10,000 rpm in Sorvall SLA600, precooled). The supernatant was transferred to an ultracentrifuge (UZ)-polycarbonate tube (Beckmann, 355654) and spun for 1 hour at 100.000 g at 4° C. (33.500 rpm in Ti50.2, precooled). The supernatant was transferred again to a fresh 50 ml falcon tube, the protein concentration was determined by a Bradford assay (BioRad) and samples containing 50 mg of protein per aliquot were prepared. The samples were immediately used for experiments or frozen in liquid nitrogen and stored frozen at −80° C.
(§7) Jurkat cell lysate (approximately 50 mg protein per plate) was thawed in a water bath at room temperature and then kept on ice. To the thawed cell lysate 1×DP 0.8% NP40 buffer containing protease inhibitors (1 tablet for 25 ml buffer; EDTA-free protease inhibitor cocktail; Roche Diagnostics 1873580) was added in order to reach a final protein concentration of 5 mg/ml total protein. The diluted cell lysate was stored on ice. […]

[3] = biological target: T2, PI3K alpha (PI3Kα) (Homo sapiens, UniProt P42336); assay: kinobeads assay, PI3K alpha; assay type: binding; settings: Jurkat cell lysate, read-out: Inhibition values (IC50) PI3Ka
T2 construct: Jurkat cells were homogenized in a Potter S homogenizer in lysis buffer; endogenous in cells; host or cells: Jurkat, clone E6-1 (ATCC TIB-152) lysate
Method: as §1, §2, §3, §4, §5, §6, §7

[4] = biological target: T3, DNA-dependent protein kinase (DNA-PK) (Homo sapiens, UniProt P78527); assay: kinobeads assay, DNA-PK; assay type: binding; settings: Jurkat cell lysate, read-out: Inhibition values (IC50) DNA-PK
T3 construct: Jurkat cells were homogenized in a Potter S homogenizer in lysis buffer; endogenous in cells; host or cells: Jurkat, clone E6-1 (ATCC TIB-152) lysate
Method: as §1, §2, §3, §4, §5, §6, §7

[5] = biological target: T4, PI3K beta (PI3Kb) (Homo sapiens, UniProt P42338); assay: kinobeads assay, PI3K beta; assay type: binding; settings: Jurkat cell lysate, read-out: Inhibition values (IC50) PI3Kb
T4 construct: Jurkat cells were homogenized in a Potter S homogenizer in lysis buffer; endogenous in cells; host or cells: Jurkat, clone E6-1 (ATCC TIB-152) lysate
Method: as §1, §2, §3, §4, §5, §6, §7

[6] = biological target: T5, PI3K delta (PI3Kd) (Homo sapiens, UniProt O00329); assay: kinobeads assay, PI3K delta; assay type: binding; settings: Jurkat cell lysate, read-out: Inhibition values (IC50) PI3Kd
T5 construct: Jurkat cells were homogenized in a Potter S homogenizer in lysis buffer; endogenous in cells; host or cells: Jurkat, clone E6-1 (ATCC TIB-152) lysate
Method: as §1, §2, §3, §4, §5, §6, §7

[7] = biological target: T6, PI3K gamma (PI3Kg) (Homo sapiens, UniProt P48736); assay: kinobeads assay, PI3K gamma; assay type: binding; settings: Jurkat cell lysate, read-out: Inhibition values (IC50) PI3Kg
T6 construct: Jurkat cells were homogenized in a Potter S homogenizer in lysis buffer; endogenous in cells; host or cells: Jurkat, clone E6-1 (ATCC TIB-152) lysate
Method: as §1, §2, §3, §4, §5, §6, §7

T4 sequence (P42338 whole entry): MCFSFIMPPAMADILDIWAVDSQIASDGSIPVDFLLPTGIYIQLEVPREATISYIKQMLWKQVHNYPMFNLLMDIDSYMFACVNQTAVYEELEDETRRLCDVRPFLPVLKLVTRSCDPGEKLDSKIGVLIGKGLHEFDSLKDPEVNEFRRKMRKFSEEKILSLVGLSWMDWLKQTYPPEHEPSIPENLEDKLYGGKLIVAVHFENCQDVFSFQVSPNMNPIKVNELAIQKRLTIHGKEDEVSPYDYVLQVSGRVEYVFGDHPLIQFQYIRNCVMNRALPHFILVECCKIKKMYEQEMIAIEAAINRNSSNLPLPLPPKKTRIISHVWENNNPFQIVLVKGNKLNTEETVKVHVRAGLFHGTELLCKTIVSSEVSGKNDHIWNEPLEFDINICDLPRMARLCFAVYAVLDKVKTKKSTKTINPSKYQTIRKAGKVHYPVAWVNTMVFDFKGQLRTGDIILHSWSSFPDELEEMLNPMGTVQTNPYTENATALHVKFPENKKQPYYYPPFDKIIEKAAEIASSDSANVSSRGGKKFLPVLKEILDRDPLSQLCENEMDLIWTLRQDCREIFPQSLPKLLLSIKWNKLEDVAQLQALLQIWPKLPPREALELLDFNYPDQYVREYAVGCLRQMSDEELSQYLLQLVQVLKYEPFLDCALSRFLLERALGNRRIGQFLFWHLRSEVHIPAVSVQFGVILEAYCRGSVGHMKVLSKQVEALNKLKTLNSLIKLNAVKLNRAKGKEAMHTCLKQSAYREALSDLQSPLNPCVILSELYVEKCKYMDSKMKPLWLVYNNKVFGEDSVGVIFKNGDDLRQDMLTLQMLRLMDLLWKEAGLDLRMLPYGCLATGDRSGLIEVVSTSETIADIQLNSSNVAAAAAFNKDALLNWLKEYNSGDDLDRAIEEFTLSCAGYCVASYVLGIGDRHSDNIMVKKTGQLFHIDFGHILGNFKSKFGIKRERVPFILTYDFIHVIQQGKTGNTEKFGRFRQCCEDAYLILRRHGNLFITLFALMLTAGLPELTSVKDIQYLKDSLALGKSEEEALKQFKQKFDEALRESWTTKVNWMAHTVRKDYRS
T4 sequence (P27986 whole entry partner): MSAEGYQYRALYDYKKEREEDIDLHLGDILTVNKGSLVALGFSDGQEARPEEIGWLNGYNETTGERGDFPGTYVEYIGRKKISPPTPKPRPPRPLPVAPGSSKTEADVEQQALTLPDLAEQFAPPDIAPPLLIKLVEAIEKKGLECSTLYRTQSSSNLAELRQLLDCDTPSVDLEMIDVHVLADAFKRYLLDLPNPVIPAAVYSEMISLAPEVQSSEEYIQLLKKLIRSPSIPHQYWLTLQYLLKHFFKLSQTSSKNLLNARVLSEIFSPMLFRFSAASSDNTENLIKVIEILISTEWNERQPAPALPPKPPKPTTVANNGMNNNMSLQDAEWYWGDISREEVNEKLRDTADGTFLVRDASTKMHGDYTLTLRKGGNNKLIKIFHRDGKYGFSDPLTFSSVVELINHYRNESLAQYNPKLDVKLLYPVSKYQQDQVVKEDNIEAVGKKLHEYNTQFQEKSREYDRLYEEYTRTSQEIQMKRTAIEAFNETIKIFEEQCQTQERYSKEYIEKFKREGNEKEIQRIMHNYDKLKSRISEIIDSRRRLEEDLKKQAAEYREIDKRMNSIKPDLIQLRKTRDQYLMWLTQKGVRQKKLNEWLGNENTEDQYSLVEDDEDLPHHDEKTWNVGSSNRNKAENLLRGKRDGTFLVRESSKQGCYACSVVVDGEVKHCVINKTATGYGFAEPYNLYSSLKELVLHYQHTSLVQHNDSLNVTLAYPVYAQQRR
T6 sequence (P48736 whole entry): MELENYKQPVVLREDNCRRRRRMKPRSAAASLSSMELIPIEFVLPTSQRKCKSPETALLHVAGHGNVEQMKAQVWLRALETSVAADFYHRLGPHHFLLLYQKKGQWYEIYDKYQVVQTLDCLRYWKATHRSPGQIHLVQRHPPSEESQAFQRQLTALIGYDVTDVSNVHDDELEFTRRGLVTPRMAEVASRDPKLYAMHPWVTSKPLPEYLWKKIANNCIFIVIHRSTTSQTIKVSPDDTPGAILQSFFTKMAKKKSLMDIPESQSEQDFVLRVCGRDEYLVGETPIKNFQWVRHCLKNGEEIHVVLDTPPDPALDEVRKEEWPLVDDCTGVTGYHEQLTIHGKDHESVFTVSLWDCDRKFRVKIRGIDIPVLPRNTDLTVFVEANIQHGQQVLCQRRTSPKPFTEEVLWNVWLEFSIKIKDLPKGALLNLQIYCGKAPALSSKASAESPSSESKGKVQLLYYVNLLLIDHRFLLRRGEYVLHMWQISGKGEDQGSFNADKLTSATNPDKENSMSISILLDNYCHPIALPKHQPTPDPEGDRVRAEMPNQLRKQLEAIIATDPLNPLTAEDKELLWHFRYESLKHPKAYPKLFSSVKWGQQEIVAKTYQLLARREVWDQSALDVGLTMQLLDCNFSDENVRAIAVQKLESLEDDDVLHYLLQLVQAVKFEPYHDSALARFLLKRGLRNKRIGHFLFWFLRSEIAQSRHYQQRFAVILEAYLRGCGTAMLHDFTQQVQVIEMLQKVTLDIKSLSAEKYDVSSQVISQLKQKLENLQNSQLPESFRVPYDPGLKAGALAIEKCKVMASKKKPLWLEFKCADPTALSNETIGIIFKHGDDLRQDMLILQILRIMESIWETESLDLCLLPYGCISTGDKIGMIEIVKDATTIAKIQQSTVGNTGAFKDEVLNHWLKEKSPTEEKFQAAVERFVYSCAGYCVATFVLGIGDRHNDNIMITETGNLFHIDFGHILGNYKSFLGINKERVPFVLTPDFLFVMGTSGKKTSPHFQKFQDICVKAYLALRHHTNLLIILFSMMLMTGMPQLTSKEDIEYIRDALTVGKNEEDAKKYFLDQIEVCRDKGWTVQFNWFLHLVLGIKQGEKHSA
T5 sequence (O00329 whole entry): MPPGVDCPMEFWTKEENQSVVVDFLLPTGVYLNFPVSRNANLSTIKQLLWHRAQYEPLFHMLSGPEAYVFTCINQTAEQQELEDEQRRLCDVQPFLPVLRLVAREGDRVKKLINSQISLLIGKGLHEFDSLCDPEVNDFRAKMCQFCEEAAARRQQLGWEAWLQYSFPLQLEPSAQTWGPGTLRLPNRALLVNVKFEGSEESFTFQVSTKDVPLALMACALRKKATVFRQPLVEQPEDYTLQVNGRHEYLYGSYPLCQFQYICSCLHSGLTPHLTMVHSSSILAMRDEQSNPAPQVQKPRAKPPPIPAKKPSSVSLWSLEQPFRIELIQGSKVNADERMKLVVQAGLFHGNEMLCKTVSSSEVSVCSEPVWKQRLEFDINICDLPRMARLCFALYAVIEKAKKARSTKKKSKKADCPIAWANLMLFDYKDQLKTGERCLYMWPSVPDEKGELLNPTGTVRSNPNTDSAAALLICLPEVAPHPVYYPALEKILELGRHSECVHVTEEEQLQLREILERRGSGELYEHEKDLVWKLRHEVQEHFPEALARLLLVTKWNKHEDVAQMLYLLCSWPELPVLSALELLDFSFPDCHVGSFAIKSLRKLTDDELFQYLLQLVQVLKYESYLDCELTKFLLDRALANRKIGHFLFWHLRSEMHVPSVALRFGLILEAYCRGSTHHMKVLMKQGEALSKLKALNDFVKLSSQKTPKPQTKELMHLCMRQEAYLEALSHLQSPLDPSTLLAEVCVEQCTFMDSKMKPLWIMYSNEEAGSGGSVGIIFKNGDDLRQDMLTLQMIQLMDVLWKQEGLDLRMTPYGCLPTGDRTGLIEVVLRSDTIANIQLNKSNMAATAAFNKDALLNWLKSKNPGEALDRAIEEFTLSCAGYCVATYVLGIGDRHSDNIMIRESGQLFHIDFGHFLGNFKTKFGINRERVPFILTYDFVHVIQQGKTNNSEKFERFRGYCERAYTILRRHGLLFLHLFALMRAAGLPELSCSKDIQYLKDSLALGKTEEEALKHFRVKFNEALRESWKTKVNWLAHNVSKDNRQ
T5 sequence (P27986 whole entry partner): as the sequence (P27986 whole entry partner) above
T2 sequence (P42336 whole entry): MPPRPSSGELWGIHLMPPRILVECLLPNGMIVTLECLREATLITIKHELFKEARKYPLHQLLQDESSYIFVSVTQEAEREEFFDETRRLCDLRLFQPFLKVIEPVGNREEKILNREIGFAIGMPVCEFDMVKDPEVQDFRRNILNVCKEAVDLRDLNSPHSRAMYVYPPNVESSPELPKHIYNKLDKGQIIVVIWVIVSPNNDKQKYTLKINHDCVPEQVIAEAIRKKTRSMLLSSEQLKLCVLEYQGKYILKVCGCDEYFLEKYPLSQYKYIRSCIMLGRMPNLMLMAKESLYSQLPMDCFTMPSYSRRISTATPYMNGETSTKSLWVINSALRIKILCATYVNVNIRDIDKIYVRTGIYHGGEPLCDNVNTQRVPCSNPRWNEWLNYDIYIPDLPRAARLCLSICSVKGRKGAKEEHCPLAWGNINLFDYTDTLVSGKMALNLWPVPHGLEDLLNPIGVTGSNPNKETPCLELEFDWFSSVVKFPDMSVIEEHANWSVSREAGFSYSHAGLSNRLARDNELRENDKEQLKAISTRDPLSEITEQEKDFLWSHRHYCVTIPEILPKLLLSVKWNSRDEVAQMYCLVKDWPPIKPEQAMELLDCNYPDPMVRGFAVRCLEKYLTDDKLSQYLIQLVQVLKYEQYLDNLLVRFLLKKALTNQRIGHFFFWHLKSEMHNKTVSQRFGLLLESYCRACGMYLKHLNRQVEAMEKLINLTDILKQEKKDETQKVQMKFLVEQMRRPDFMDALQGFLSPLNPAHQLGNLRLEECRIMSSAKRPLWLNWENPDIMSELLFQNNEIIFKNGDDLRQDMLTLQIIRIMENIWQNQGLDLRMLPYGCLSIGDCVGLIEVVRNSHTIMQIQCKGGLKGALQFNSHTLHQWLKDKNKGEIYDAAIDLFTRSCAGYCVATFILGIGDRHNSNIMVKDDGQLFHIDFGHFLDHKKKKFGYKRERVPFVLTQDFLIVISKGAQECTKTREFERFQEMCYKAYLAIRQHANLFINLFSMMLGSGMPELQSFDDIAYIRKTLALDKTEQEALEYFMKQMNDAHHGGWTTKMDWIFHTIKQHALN
T2 sequence (P27986 whole entry partner): as the sequence (P27986 whole entry partner) above

| SMILES | IC50 [1] | IC50 [2] | IC50 [3] | IC50 [4] | IC50 [5] | IC50 [6] | IC50 [7] |
| --- | --- | --- | --- | --- | --- | --- | --- |
| C[C@H]1COCCN1c1nc(-c2ccc(NC(=O)NC3CCOC3)cc2)nc(-c2ccccc2S(C)(=O)=O)n1 (stereo partly drawn) [Example 34, 1-(4-(4-((S)-3-methylmorpholino)-6-(2-(methylsulfonyl)phenyl)-1,3,5-triazin-2-yl)phenyl)-3-(tetrahydrofuran-3-yl)urea] | 0.1 to 1 µM | 0.1 to 1 µM | > 10 µM | > 10 µM | > 10 µM | > 10 µM | > 10 µM |
| CCCNC(=O)Nc1ccc(-c2nc(-c3ccccc3S(C)(=O)=O)nc(N3CCOC[C@@H]3C)n2)cc1 [Example 18, (S)-1-(4-(4-(3-methylmorpholino)-6-(2-(methylsulfonyl)phenyl)-1,3,5-triazin-2-yl)phenyl)-3-propylurea] | < 0.1 µM | 0.1 to 1 µM | > 10 µM | > 10 µM | > 10 µM | > 10 µM | > 10 µM |
| CS(=O)(=O)c1ccccc1-c1nc(-c2ccc(NC(=O)NC3CC3)cc2)nc(N2CC3CCC(C2)O3)n1 [Example 11, 1-(4-(4-(8-oxa-3-azabicyclo[3.2.1]octan-3-yl)-6-(2-(methylsulfonyl)phenyl)-1,3,5-triazin-2-yl)phenyl)-3-cyclopropylurea] | < 0.1 µM | < 0.1 µM | > 10 µM | > 10 µM | > 10 µM | > 10 µM | > 10 µM |
| CS(=O)(=O)c1ccccc1-c1nc(-c2ccc(NC(=O)NC3CC3)cc2)nc(N2C3CCC2COC3)n1 [Example 16, 1-(4-(4-(3-oxa-8-azabicyclo[3.2.1]octan-8-yl)-6-(2-(methylsulfonyl)phenyl)-1,3,5-triazin-2-yl)phenyl)-3-cyclopropylurea] | < 0.1 µM | 0.1 to 1 µM | > 10 µM | > 10 µM | > 10 µM | > 10 µM | > 10 µM |
| CCS(=O)(=O)c1ccccc1-c1nc(-c2ccc(NC(=O)NC3CC3)cc2)nc(N2CCOC[C@@H]2C)n1 [Example 17, (S)-1-cyclopropyl-3-(4-(4-(2-(ethylsulfonyl)phenyl)-6-(3-methylmorpholino)-1,3,5-triazin-2-yl)phenyl)urea] | < 0.1 µM | 0.1 to 1 µM | > 10 µM | > 10 µM | > 10 µM | > 10 µM | > 10 µM |
| C[C@H]1COCCN1c1nc(-c2ccc(NC(=O)NC3CCCC3)cc2)nc(-c2ccccc2S(C)(=O)=O)n1 [Example 20, (S)-1-cyclopentyl-3-(4-(4-(3-methylmorpholino)-6-(2-(methylsulfonyl)phenyl)-1,3,5-triazin-2-yl)phenyl)urea] | < 0.1 µM | 0.1 to 1 µM | 1 to 10 µM | 1 to 10 µM | 1 to 10 µM | > 10 µM | > 10 µM |
| CS(=O)(=O)c1ccccc1-c1nc(-c2ccc(NC(=O)NC3CC3)cc2)nc(N2CCCOCC2)n1 [Example 21, 1-cyclopropyl-3-(4-(4-(2-(methylsulfonyl)phenyl)-6-(1,4-oxazepan-4-yl)-1,3,5-triazin-2-yl)phenyl)urea] | 0.1 to 1 µM | 0.1 to 1 µM | > 10 µM | > 10 µM | > 10 µM | > 10 µM | > 10 µM |
| C[C@@H]1COCCN1c1nc(-c2ccc(NC(=O)NC3CC3)cc2)nc(-c2ccccc2S(C)(=O)=O)n1 [Example 13, (R)-1-cyclopropyl-3-(4-(4-(3-methylmorpholino)-6-(2-(methylsulfonyl)phenyl)-1,3,5-triazin-2-yl)phenyl)urea] | < 0.1 µM | 0.1 to 1 µM | > 10 µM | > 10 µM | > 10 µM | > 10 µM | > 10 µM |
| C[C@H]1COCCN1c1nc(-c2ccc(NC(=O)NCC(F)(F)F)cc2)nc(-c2ccccc2S(C)(=O)=O)n1 [Example 32, (S)-1-(4-(4-(3-methylmorpholino)-6-(2-(methylsulfonyl)phenyl)-1,3,5-triazin-2-yl)phenyl)-3-(2,2,2-trifluoroethyl)urea] | < 0.1 µM | 0.1 to 1 µM | > 10 µM | > 10 µM | > 10 µM | > 10 µM | > 10 µM |
| CC(C)NC(=O)Nc1ccc(-c2nc(-c3ccccc3S(C)(=O)=O)nc(N3CCOC[C@@H]3C)n2)cc1 [Example 15, (S)-1-isopropyl-3-(4-(4-(3-methylmorpholino)-6-(2-(methylsulfonyl)phenyl)-1,3,5-triazin-2-yl)phenyl)urea] | < 0.1 µM | 0.1 to 1 µM | > 10 µM | > 10 µM | > 10 µM | > 10 µM | > 10 µM |
